Data taken from patent US11078202B2, “β-lactamase inhibitor and use thereof” (priority 2018, dated 2021).
Where a name gives a salt, the structure may show the parent alone.

Assays:
Assay type in all cases: cell-based
[1] = test system: Klebsiella pneumoniae XNWB 0006; experiment: MIC assay of test compounds combined with imipenem (4 μg/mL); settings: imipenem 4 μg/mL fixed
In short: (§1)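 Inoculum: TSA-grown colonies (35±2 °C, 20-24 h, subcultured once), NaCl 0.9% suspension at OD600 0.1-0.15, then 300× dilution into 1.1×CAMHB. Serial compound dilutions with the partner antibiotic at a fixed level; ambient-air incubation 16-20 h, 35±2 °C; CLSI-based MIC readout.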

[2] = test system: Klebsiella pneumoniae XNWB 0003; experiment: as above; settings: imipenem 4 μg/mL fixed
In short: as §1

[3] = test system: Klebsiella pneumoniae XNWB 0002; experiment: as above; settings: imipenem 4 μg/mL fixed
In short: as §1

[4] = test system: Acinetobacter baumannii XNWB 0007; experiment: as above; settings: imipenem 4 μg/mL fixed
In short: as §1

[5] = test system: Klebsiella pneumoniae XNWB 0005; experiment: as above; settings: imipenem 4 μg/mL fixed
In short: as §1

[6] = test system: Klebsiella pneumoniae XNWB 0001; experiment: as above; settings: imipenem 4 μg/mL fixed
In short: as §1

[7] = test system: Klebsiella pneumoniae XNWB 0004; experiment: as above; settings: imipenem 4 μg/mL fixed
In short: as §1

[8] = test system: Pseudomonas aeruginosa XNWB 0008; experiment: as above; settings: imipenem 4 μg/mL fixed
In short: as §1

[9] = test system: Klebsiella pneumoniae XNWB 0006; experiment: MIC assay of test compounds combined with ceftazidime (8 μg/mL); settings: ceftazidime 8 μg/mL fixed
In short: as §1

[10] = test system: Klebsiella pneumoniae XNWB 0003; experiment: as above; settings: ceftazidime 8 μg/mL fixed
In short: as §1

[11] = test system: Klebsiella pneumoniae XNWB 0002; experiment: as above; settings: ceftazidime 8 μg/mL fixed
In short: as §1

[12] = test system: Acinetobacter baumannii XNWB 0007; experiment: as above; settings: ceftazidime 8 μg/mL fixed
In short: as §1

[13] = test system: Klebsiella pneumoniae XNWB 0005; experiment: as above; settings: ceftazidime 8 μg/mL fixed
In short: as §1

[14] = test system: Klebsiella pneumoniae XNWB 0001; experiment: as above; settings: ceftazidime 8 μg/mL fixed
In short: as §1

[15] = test system: Klebsiella pneumoniae XNWB 0004; experiment: as above; settings: ceftazidime 8 μg/mL fixed
In short: as §1

[16] = test system: Pseudomonas aeruginosa XNWB 0008; experiment: as above; settings: ceftazidime 8 μg/mL fixed
In short: as §1

Row | Structure (SMILES) | The minimum concentration of test compounds combined with imipenem (4 μg/mL) for bacteriostasis [1] | The minimum concentration of test compounds combined with imipenem (4 μg/mL) for bacteriostasis [2] | The minimum concentration of test compounds combined with imipenem (4 μg/mL) for bacteriostasis [3] | The minimum concentration of test compounds combined with imipenem (4 μg/mL) for bacteriostasis [4] | The minimum concentration of test compounds combined with imipenem (4 μg/mL) for bacteriostasis [5] | The minimum concentration of test compounds combined with imipenem (4 μg/mL) for bacteriostasis [6] | The minimum concentration of test compounds combined with imipenem (4 μg/mL) for bacteriostasis [7] | The minimum concentration of test compounds combined with imipenem (4 μg/mL) for bacteriostasis [8] | The minimum concentration of test compounds combined with ceftazidime (8 μg/mL) for bacteriostasis [9] | The minimum concentration of test compounds combined with ceftazidime (8 μg/mL) for bacteriostasis [10] | The minimum concentration of test compounds combined with ceftazidime (8 μg/mL) for bacteriostasis [11] | The minimum concentration of test compounds combined with ceftazidime (8 μg/mL) for bacteriostasis [12] | The minimum concentration of test compounds combined with ceftazidime (8 μg/mL) for bacteriostasis [13] | The minimum concentration of test compounds combined with ceftazidime (8 μg/mL) for bacteriostasis [14] | The minimum concentration of test compounds combined with ceftazidime (8 μg/mL) for bacteriostasis [15] | The minimum concentration of test compounds combined with ceftazidime (8 μg/mL) for bacteriostasis [16]
1 | O=C1N2C[C@H](N1OS(=O)(=O)O)C1(CC1)C[C@H]2c1cc(C2CCCNC2)on1 (stereo partly drawn) [Example 44, (1R,4S)-6-oxo-4-(5-(piperidin-3-yl)isoxazol-3-yl)-5,7-diazaspiro[bicyclo[3.2.1]octane-2,1′-cyclopropan]-7-yl sulfate] | A (A: <8 μg/mL) | A (A: <8 μg/mL) | A (A: <8 μg/mL) | C (C: 16-128 μg/mL) | A (A: <8 μg/mL) | A (A: <8 μg/mL) | A (A: <8 μg/mL) | A (A: <8 μg/mL) | A (A: <8 μg/mL) | A (A: <8 μg/mL) | A (A: <8 μg/mL) | C (C: 16-128 μg/mL) | A (A: <8 μg/mL) | A (A: <8 μg/mL) | B (B: 8-16 μg/mL) | B (B: 8-16 μg/mL)
2 | N[C@H]1CC[C@@H](c2nnc([C@@H]3CC4(CC4)[C@@H]4CN3C(=O)N4OS(=O)(=O)O)o2)C1 [Example 17, (1R,4S)-4-(5-((1R,3S)-3-aminocyclopentyl)-1,3,4-oxadiazol-2-yl)-6-oxo-5,7-diazaspiro [bicyclo[3.2.1]octane-2,1′-cyclopropan]-7-yl sulfate] | A (A: <8 μg/mL) | A (A: <8 μg/mL) | A (A: <8 μg/mL) | B (B: 8-16 μg/mL) | A (A: <8 μg/mL) | A (A: <8 μg/mL) | A (A: <8 μg/mL) | A (A: <8 μg/mL) | A (A: <8 μg/mL) | A (A: <8 μg/mL) | A (A: <8 μg/mL) | C (C: 16-128 μg/mL) | A (A: <8 μg/mL) | A (A: <8 μg/mL) | A (A: <8 μg/mL) | B (B: 8-16 μg/mL)
3 | NCc1cc([C@@H]2CC3(CC3)[C@@H]3CN2C(=O)N3OS(=O)(=O)O)no1 [Example 35, (1R,4S)-4-(5-(aminomethyl)-isoxazol-3-yl)-6-oxo-5,7-diazaspiro[bicyclo[3.2.1]octane-2,1′-cyclopropan]-7-yl sulfate] | A (A: <8 μg/mL) | A (A: <8 μg/mL) | A (A: <8 μg/mL) | C (C: 16-128 μg/mL) | A (A: <8 μg/mL) | A (A: <8 μg/mL) | A (A: <8 μg/mL) | B (B: 8-16 μg/mL) | A (A: <8 μg/mL) | A (A: <8 μg/mL) | A (A: <8 μg/mL) | C (C: 16-128 μg/mL) | A (A: <8 μg/mL) | A (A: <8 μg/mL) | A (A: <8 μg/mL) | C (C: 16-128 μg/mL)
4 | N[C@H]1C[C@@H](c2cc([C@@H]3CC4(CC4)[C@@H]4CN3C(=O)N4OS(=O)(=O)O)no2)C1 [Example 26, (1R,4S)-4-(5-((1R,3R)-3-aminocyclobutyl)isoxazol-3-yl)-6-oxo-5,7-diazaspiro[bicycle [3.2.1]octane-2,1′-cyclopropan]-7-yl sulfate] | A (A: <8 μg/mL) | A (A: <8 μg/mL) | A (A: <8 μg/mL) | C (C: 16-128 μg/mL) | A (A: <8 μg/mL) | A (A: <8 μg/mL) | A (A: <8 μg/mL) | A (A: <8 μg/mL) | A (A: <8 μg/mL) | A (A: <8 μg/mL) | A (A: <8 μg/mL) | C (C: 16-128 μg/mL) | A (A: <8 μg/mL) | A (A: <8 μg/mL) | A (A: <8 μg/mL) | B (B: 8-16 μg/mL)
